From patent US11034672B1, “Tyrosine kinase inhibitor compositions, methods of making and methods of use” (Black Diamond Therapeutics, Inc., priority 2018, dated 2021)

Columns and labels:
[1] = tested on: CUTO-14 tumors (EGFR-Exon 20 insertion ASV); assay: Tumor growth in athymic nude mice bearing CUTO-14 tumors; assay type: in vivo
Experimental: To determine the ability of Compound No. 6 to inhibit tumor growth and induce tumor regression in vivo, a mouse tumor model containing the EGFR-Exon 20 insertion ASV (CUTO-14) mutation was used. Athymic nude mice from Charles River Labs bearing CUTO-14 tumors were treated with Compound No. 6 at either 50 mg/kg once per day (QD) or 25 mg/kg twice per day (BID) over the indicated time course, and tumor volume was measured. Tumor volume was analyzed to assess the effect of Compound No. 6 on tumor growth and regression.

[2] = tested on: HER2 S310F; assay: Tumor pHER2/pERK AlphaLisa in mice bearing HER2 S310F BaF3 tumors (Examples 15-18); assay type: in vivo; details: two day acute oral dosing, 15 mg/kg; at peak plasma levels
Experimental: (§1) Following the second dose, tumors were collected at 2 hours, 5 hours, 12 hours and 24 hours, and analyzed for both pHER2 activity and pERK activity via AlphaLisa. Plasma was also collected at these time points and analayzed for the presence of Compound No. 21 to determine pharmacokinetic profile. The tumor tissue was cut and homogenized using the Precellys Soft Tissue Homogenizing kit (KT03961-1-00.3.2) containing T-PER tissue protein extraction reagent (Thermo Scientific #78510), supplemented with Protease Inhibitor (Sigma P8340), and Phosphatase Inhibitors II and III (Sigma P5726 and P0044). Tissue samples were homogenized in the Precellys machine by spinning two times for one minute each. Sample tubes were centrifuged for 5 min at 15,000 rpm at 4° C. The supernatant was transferred to a fresh microtube and spun again for 5 minutes at 15,000 rpm at 4° C. Supernatant was then transferred to a fresh microtube and placed on ice. The protein concentration of the supernatant was measured using the BCA reagent Kit (Thermo Scientific #23225). Tumor tissue-derived lysates were analyzed for either HER2 activity or EGFR activity by detection of pHER2 (Tyr1221/1222) or pERK (Thr202/Tyr204) phosphosites, respectively, via AlphaLisa. Briefly, tumor Lysates were diluted to 0.5 ug/ul in 1× diluted SureFire Ultra Kit Lysis Buffer (5× supplied stock) supplemented with Protease Inhibitor (Sigma P8340) and Phosphatase Inhibitor II and III (Sigma P5726 and P0044). 10 ul of total tumor lysate was added per well in triplicate to a 384-well Opti-plate (Perkin Elmer #6007290). Activation Buffer was diluted 25-fold in combined Reaction Buffer 1 and Reaction Buffer 2, and acceptor beads were diluted 50-fold in the combined Reaction Buffers. 5 ul/well of the Acceptor bead:Reaction buffer mixture was added to each well.
as §1, with “No. 5” for “No. 21”, “Buffer (X” for “Buffer (5×”
To determine the ability of Compound No. 118 to inhibit tumor growth and induce tumor regression in vivo, a mouse tumor model containing the HER2 S310F mutation was used. Athymic nude mice from Charles River Labs bearing HER2 S310F BaF3 tumors were treated with two day acute oral dosing of Compound No. 118 at 15 mg/kg. […]

SMILES	pERK1/2 (Thr202/Tyr204) in tumors [2]	pHER2 (Tyr1221/1222) in tumors [2]	also measured
C=CC(=O)Nc1cc2c(Nc3ccc(OCc4ccccn4)c(Cl)c3)ncnc2cc1OCCN1CCOCC1 [compound 8]			Tumor volume ([1]; 30 mg/kg once per day (QD), FIG. 31): decreased; Tumor volume ([1]; 50 mg/kg twice per day (BID), FIG. 31): decreased
CC#CC(=O)Nc1cc2c(Nc3ccc(OCc4ccccn4)c(Cl)c3)ncnc2cc1OCCN1CCOCC1 [compound 5]	reduction	reduction	
C=CC(=O)Nc1cc2c(Nc3ccc(OCc4ccccn4)c(Cl)c3)ncnc2cc1OCCCN1CCOCC1 [compound 21]	near complete reduction	near complete reduction	
C=CC(=O)Nc1cc2c(Nc3cc(Cl)c(OCc4cccc(F)c4)cc3F)ncnc2cc1OCCN1CCOCC1 [compound 6]			Tumor volume ([1]; 25 mg/kg twice per day (BID), FIG. 32): decreased; Tumor volume ([1]; 50 mg/kg once per day (QD), FIG. 32): decreased
